Values belong to the compound of their own block, whether it stands above or below them.
Key:
Assay in all cases: competitive isoTOP-ABPP
Format in all cases: binding
[1] = molecular target: T1, ATP6V1F V-type proton ATPase subunit F (Homo sapiens, UniProt Q16864); details: for R value (DMSO/fragment) for probe 1 labeling: Q16864_K6, 231 sol; for R value (DMSO/fragment) for probe 1 labeling / isoTOP-ABPP ratio (R) at liganded lysine Q16864_K6: 50 uM, in vitro; for isoTOP-ABPP ratio (R) at liganded lysine Q16864_K6: sol, 231; for isoTOP-ABPP ratio, lysine Q16864_K6: 50 uM_231_sol_in vitro
T1 construct: isoTOP-ABPP experiments performed in cell lysates (in vitro); endogenous in cells; host or cells: soluble proteome of human cancer cell lines (MDA-MB-231; Ramos and Jurkat also prepared)
Outline: (§1)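 Readout: isotopic light/heavy MS1 peak-area ratio (R, DMSO heavy over compound light), median across peptides sharing a modified lysine. Lysate received fragment (activated esters 50 μM, guanidinylating agents 100 μM final) or DMSO, then 0.1 mM STP-alkyne probe for 1 h at ambient temperature.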

[2] = molecular target: T2, CDK2 Cyclin-dependent kinase 2 (Homo sapiens, UniProt P24941); details: for R value (DMSO/fragment) for probe 1 labeling: P24941_K33, 231 sol; for R value (DMSO/fragment) for probe 1 labeling / isoTOP-ABPP ratio (R) at liganded lysine P24941_K33: 50 uM, in vitro; for isoTOP-ABPP ratio (R) at liganded lysine P24941_K33: sol, 231; for isoTOP-ABPP ratio, lysine P24941_K33: 50 uM_231_sol_in vitro
T2 construct: isoTOP-ABPP experiments performed in cell lysates (in vitro); endogenous in cells; host or cells: soluble proteome of human cancer cell lines (MDA-MB-231; Ramos and Jurkat also prepared)
Outline: as §1

[3] = molecular target: T3, ETFA Electron transfer flavoprotein subunit alpha, mitochondrial (Homo sapiens, UniProt P13804); details: for R value (DMSO/fragment) for probe 1 labeling: P13804_K139; for R value (DMSO/fragment) for probe 1 labeling / isoTOP-ABPP ratio (R) at liganded lysine P13804_K139 / isoTOP-ABPP reactivity ratio at lysine P13804_K139: 50 uM, in vitro; for R value (DMSO/fragment) for probe 1 labeling / isoTOP-ABPP reactivity ratio at lysine P13804_K139: 231 sol; for isoTOP-ABPP ratio (R) at liganded lysine P13804_K139: sol, 231; for isoTOP-ABPP ratio, lysine P13804_K139: 50 uM_231_sol_in vitro
T3 construct: isoTOP-ABPP experiments performed in cell lysates (in vitro); endogenous in cells; host or cells: soluble proteome of human cancer cell lines (MDA-MB-231; Ramos and Jurkat also prepared)
T3 sequence (P13804 20-333): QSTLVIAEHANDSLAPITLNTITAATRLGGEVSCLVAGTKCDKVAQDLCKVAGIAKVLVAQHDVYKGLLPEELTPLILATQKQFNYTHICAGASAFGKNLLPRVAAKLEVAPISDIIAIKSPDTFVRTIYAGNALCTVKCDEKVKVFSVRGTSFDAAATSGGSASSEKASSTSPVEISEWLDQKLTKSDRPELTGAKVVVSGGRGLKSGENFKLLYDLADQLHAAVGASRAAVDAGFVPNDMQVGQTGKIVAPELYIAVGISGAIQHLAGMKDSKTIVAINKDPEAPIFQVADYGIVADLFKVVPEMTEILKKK
T3 sequence (P38117 2-255 partner limits assumed): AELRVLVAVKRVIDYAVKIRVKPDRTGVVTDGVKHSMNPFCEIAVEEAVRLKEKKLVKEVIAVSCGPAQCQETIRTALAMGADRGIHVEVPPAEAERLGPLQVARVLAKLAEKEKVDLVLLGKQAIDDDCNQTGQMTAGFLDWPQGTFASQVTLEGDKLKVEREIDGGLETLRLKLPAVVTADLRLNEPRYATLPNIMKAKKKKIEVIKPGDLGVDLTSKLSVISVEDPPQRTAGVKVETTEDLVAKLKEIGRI
Outline: as §1

[4] = molecular target: T4, LRRC20 Leucine-rich repeat-containing protein 20 (Homo sapiens, UniProt Q8TCA0); details: for R value (DMSO/fragment) for probe 1 labeling: Q8TCA0_K43, 231 sol; for R value (DMSO/fragment) for probe 1 labeling / isoTOP-ABPP ratio (R) at liganded lysine Q8TCA0_K43: 50 uM, in vitro; for isoTOP-ABPP ratio (R) at liganded lysine Q8TCA0_K43: sol, 231; for isoTOP-ABPP ratio, lysine Q8TCA0_K43: 50 uM_231_sol_in vitro
T4 construct: isoTOP-ABPP experiments performed in cell lysates (in vitro); endogenous in cells; host or cells: soluble proteome of human cancer cell lines (MDA-MB-231; Ramos and Jurkat also prepared)
T4 sequence (Q8TCA0 1-184): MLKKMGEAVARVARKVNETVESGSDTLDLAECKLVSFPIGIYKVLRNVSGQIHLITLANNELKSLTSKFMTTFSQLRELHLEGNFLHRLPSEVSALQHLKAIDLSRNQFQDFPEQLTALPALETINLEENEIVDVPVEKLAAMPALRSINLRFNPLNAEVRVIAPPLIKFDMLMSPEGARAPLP
Outline: as §1

[5] = molecular target: T5, MRPL12 39S ribosomal protein L12, mitochondrial (Homo sapiens, UniProt P52815); details: for R value (DMSO/fragment) for probe 1 labeling: P52815_K87; for isoTOP-ABPP ratio (R) at liganded lysine P52815_K87: sol, 231; for isoTOP-ABPP ratio, lysine P52815_K87: 50 uM_231_sol_in vitro, possible other lysine B4DLN1_K87, P52815_K91
T5 construct: isoTOP-ABPP experiments performed in cell lysates (in vitro); endogenous in cells; host or cells: soluble proteome of human cancer cell lines (MDA-MB-231, Ramos, Jurkat)
Outline: as §1

[6] = molecular target: T6, EEF1G Elongation factor 1-gamma (Homo sapiens, UniProt P26641); details: for isoTOP-ABPP ratio, lysine P26641_K227: 50 uM_231_sol_in vitro
T6 construct: isoTOP-ABPP experiments performed in cell lysates (in vitro); endogenous in cells; host or cells: soluble proteome of human cancer cell lines (MDA-MB-231; Ramos and Jurkat also prepared)
Outline: as §1

[7] = molecular target: T7, IMPDH1 Inosine-5-monophosphate dehydrogenase 1 (Homo sapiens, UniProt P20839); details: 50 uM, in vitro, sol, 231
T7 construct: isoTOP-ABPP experiments performed in cell lysates (in vitro); endogenous in cells; host or cells: soluble proteome of human cancer cell lines (MDA-MB-231; Ramos and Jurkat also prepared)
Outline: as §1

T1 sequence (Q16864 whole entry, the tested form may be a part): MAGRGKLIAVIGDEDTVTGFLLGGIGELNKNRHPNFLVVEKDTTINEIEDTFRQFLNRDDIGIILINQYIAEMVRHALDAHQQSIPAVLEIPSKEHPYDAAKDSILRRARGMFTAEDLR
T6 sequence (P26641 whole entry): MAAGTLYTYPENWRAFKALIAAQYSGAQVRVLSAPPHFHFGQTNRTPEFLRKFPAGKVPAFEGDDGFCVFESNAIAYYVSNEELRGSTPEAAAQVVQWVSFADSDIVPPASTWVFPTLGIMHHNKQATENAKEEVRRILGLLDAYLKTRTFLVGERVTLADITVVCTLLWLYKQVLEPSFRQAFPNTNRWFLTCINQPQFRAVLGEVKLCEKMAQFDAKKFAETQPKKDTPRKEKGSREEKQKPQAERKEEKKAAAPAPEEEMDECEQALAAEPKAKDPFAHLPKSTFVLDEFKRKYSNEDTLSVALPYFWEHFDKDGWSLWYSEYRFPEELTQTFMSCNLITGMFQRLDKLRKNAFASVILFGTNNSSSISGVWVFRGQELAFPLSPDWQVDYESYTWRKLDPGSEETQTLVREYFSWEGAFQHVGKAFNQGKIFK
T7 sequence (P20839 whole entry): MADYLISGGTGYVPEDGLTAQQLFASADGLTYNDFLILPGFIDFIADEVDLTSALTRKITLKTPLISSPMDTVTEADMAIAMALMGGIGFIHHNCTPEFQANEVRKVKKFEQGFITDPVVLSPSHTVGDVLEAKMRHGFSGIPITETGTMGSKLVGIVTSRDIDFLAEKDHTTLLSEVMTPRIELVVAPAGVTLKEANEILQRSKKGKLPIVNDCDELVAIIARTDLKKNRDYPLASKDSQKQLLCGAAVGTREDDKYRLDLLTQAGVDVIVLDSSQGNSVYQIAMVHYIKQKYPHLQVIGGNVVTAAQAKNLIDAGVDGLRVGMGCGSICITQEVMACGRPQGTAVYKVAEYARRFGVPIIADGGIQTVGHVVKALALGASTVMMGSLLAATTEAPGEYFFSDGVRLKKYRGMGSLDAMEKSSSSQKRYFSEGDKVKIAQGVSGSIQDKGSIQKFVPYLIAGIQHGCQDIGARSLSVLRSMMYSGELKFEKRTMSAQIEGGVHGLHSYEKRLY

R value (DMSO/fragment) for probe 1 labeling [1]: 1.1
R value (DMSO/fragment) for probe 1 labeling [2]: 1.5
R value (DMSO/fragment) for probe 1 labeling [3]: 0.9
R value (DMSO/fragment) for probe 1 labeling [4]: 0.9
R value (DMSO/fragment) for probe 1 labeling ([5]; 50 uM, 231 sol, in vitro): 1.4
SMILES: Cn1cc(CC(=O)Oc2c(F)c(F)c(F)c(F)c2F)c2ccccc21 [fragment 22, Pentafluorophenyl 2-(1-methyl-1H-indol-3-yl)acetate]

SMILES: O=C(Oc1ccc([N+](=O)[O-])cc1[N+](=O)[O-])c1ccc2ccccc2n1 [fragment 35, 2,4-Dinitrophenyl quinoline-2-carboxylate]
isoTOP-ABPP ratio (R) at liganded lysine P24941_K33 [2]: 1.6
isoTOP-ABPP ratio (R) at liganded lysine P13804_K139 [3]: 0.9
isoTOP-ABPP ratio (R) at liganded lysine Q8TCA0_K43 [4]: 1.0
isoTOP-ABPP ratio (R) at liganded lysine P52815_K87 ([5]; 50 uM, in vitro): 0.9

isoTOP-ABPP reactivity ratio at lysine P26641_K227 ([6]; 50 uM, 231 sol, in vitro): 0.9
isoTOP-ABPP reactivity ratio at lysine P13804_K139 [3]: 1.1
SMILES: O=C(Oc1c(F)c(F)c(F)c(F)c1F)C1CCN(C(=O)OCc2ccccc2)CC1 [fragment 24, 1-Benzyl 4-(pentafluorophenyl) piperidine-1,4-dicarboxylate]

isoTOP-ABPP reactivity ratio at lysine P26641_K227 ([6]; 50 uM, 231 sol, in vitro): 1.1
SMILES: O=C(Oc1c(F)c(F)c(F)c(F)c1F)c1ccc2ccccc2n1 [fragment 25, Pentafluorophenyl quinoline-2-carboxylate]

R value (DMSO/fragment) for probe 1 labeling [1]: 1.1
R value (DMSO/fragment) for probe 1 labeling [2]: 0.9
R value (DMSO/fragment) for probe 1 labeling ([6]; P26641_K227, 50 uM, 231 sol, in vitro): 0.9
R value (DMSO/fragment) for probe 1 labeling [3]: 0.9
R value (DMSO/fragment) for probe 1 labeling [4]: 0.7
R value (DMSO/fragment) for probe 1 labeling ([5]; 50 uM, 231 sol, in vitro): 0.9
SMILES: O=C(Oc1c(F)c(F)c(F)c(F)c1F)C(c1ccccc1)c1ccccc1 [fragment 20, Pentafluorophenyl 2,2-diphenylacetate]

SMILES: O=C(Oc1ccc([N+](=O)[O-])cc1[N+](=O)[O-])c1cc(C(F)(F)F)cc(C(F)(F)F)c1 [fragment 31, 2,4-Dinitrophenyl 3,5-bis(trifluoromethyl)benzoate]
isoTOP-ABPP reactivity ratio at lysine P26641_K227 ([6]; 50 uM, 231 sol, in vitro): 2.2
isoTOP-ABPP reactivity ratio at lysine P13804_K139 [3]: 0.8

SMILES: O=C(Oc1ccc([N+](=O)[O-])cc1[N+](=O)[O-])c1ccccc1Nc1cccc(C(F)(F)F)c1 [fragment 40, 2,4-Dinitrophenyl 2-((3-(trifluoromethyl)phenyl)amino)benzoate]
isoTOP-ABPP ratio (R) at liganded lysine Q16864_K6 [1]: 0.9
isoTOP-ABPP ratio (R) at liganded lysine P24941_K33 [2]: 1.0
isoTOP-ABPP ratio (R) at liganded lysine P13804_K139 [3]: 0.9

SMILES: N#Cc1ccc(C(=O)Oc2ccc([N+](=O)[O-])cc2[N+](=O)[O-])cc1 [fragment 44, 2,4-Dinitrophenyl 4-cyanobenzoate]
isoTOP-ABPP ratio, lysine Q16864_K6 [1]: 1.2
isoTOP-ABPP ratio, lysine P24941_K33 [2]: 1.1
isoTOP-ABPP ratio, lysine P26641_K227 [6]: 0.8
isoTOP-ABPP ratio, lysine P13804_K139 [3]: 0.9
isoTOP-ABPP ratio, lysine Q8TCA0_K43 [4]: 1.1
isoTOP-ABPP ratio, lysine P52815_K87 [5]: 1.1

SMILES: O=C(ON1C(=O)CCC1=O)c1cc(C(F)(F)F)cc(C(F)(F)F)c1 [fragment 46, 3,5-Bis(trifluoromethyl)benzoic acid NHS ester]
isoTOP-ABPP ratio, lysine Q16864_K6 [1]: 20.0
isoTOP-ABPP ratio, lysine P24941_K33 [2]: 0.9
isoTOP-ABPP ratio, lysine P26641_K227 [6]: 0.6
isoTOP-ABPP ratio, lysine P13804_K139 [3]: 0.9
isoTOP-ABPP ratio, lysine Q8TCA0_K43 [4]: 1.3
isoTOP-ABPP ratio, lysine P52815_K87 [5]: 0.6

SMILES: O=C(Oc1ccc([N+](=O)[O-])cc1[N+](=O)[O-])c1ccc(Oc2ccccc2)cc1 [fragment 39, 2,4-Dinitrophenyl 4-phenoxybenzoate]
isoTOP-ABPP ratio (R) at liganded lysine Q16864_K6 [1]: 0.9
isoTOP-ABPP ratio (R) at liganded lysine P24941_K33 [2]: 1.0
isoTOP-ABPP ratio (R) at liganded lysine P13804_K139 [3]: 0.6
isoTOP-ABPP ratio (R) at liganded lysine Q8TCA0_K43 [4]: 0.9
isoTOP-ABPP ratio (R) at liganded lysine P52815_K87 ([5]; 50 uM, in vitro): 1.1

SMILES: CC(=O)Oc1ccc([N+](=O)[O-])cc1[N+](=O)[O-] [fragment 43, 2,4-Dinitrophenyl acetate]
isoTOP-ABPP ratio (R) at liganded lysine Q16864_K6 [1]: 20.0
isoTOP-ABPP ratio (R) at liganded lysine P26641_K227 ([6]; 50 uM, in vitro, sol, 231): 2.3
isoTOP-ABPP ratio (R) at liganded lysine P20839_K208 [7]: 1.3
isoTOP-ABPP ratio (R) at liganded lysine Q8TCA0_K43 [4]: 1.2

isoTOP-ABPP reactivity ratio at lysine P26641_K227 ([6]; 50 uM, 231 sol, in vitro): 15.0
isoTOP-ABPP reactivity ratio at lysine P52815_K87 ([5]; 50 uM, 231 sol, in vitro): 0.8
SMILES: CCn1cc(C(=O)Oc2c(F)c(F)c(F)c(F)c2F)c(=O)c2ccc(C)nc21 [fragment 28, Pentafluorophenyl 1-ethyl-7-methyl-4-oxo-1,4-dihydro-1,8-naphthyridine-3-carboxylate]

From patent publication US20210255193A1, “LYSINE REACTIVE PROBES AND USES THEREOF” (The Scripps Research Institute, priority 2017, published 2021)
